Results taken from patent publication US5183828A, “Polyhydroxybenzoic acid derivatives” (priority 1990, dated 1993).

How the values were obtained:
[1] = tested on: isolated rabbit hearts; experiment: contractile function in isolated Langendorff rabbit heart after global ischemia and reperfusion, Table 9; design: species or system New Zealand white rabbits; settings: 30 min global ischemia, 45 min reperfusion; bolus of 10 mM solution then 100 uM over first min; control 49 ± 9 (p<0.01)
From the text: The compounds of this invention, as represented by the above formula, are useful in treating ischemia reperfusion injury, presumably because of their free-radical scavenging ability. The following protocol illustrates this activity on the ischemia produced during treatment of coronary artery disease.
(§1) Female New Zealand white rabbits (2 kg) were heparinized and anesthetized and their hearts removed. The isolated rabbit hearts were perfused by the method of Langendorff at a constant pressure of 80 mm Hg with a Krebs-bicarbonate-buffered perfusate which was bubbled with 95% O2, 5 % CO2 gas. Chelex-treated perfusate was prepared by eluting the solution through a column of chelex 100 resin which was pre-equilibrated with 4 volumes of the perfusate solution. All perfusate solutions were routinely filtered through 0.8 um millipore filters prior to use. Heart rate and left ventricular developed pressure were measured using a fluid-filled balloon secured into the left ventrile. The balloon was connected to a Statham P23 DB pressure transducer via a hydraulic line and the transducer output amplified to a strip chart recorder. The ventricular volume was adjusted to achieve a left ventricular end disastolic pressure of 12 mmHg. During periods of global ischemia, the balloon was deflated and then reinflated 15 min after reflow. […]

[2] = tested on: superoxide (xanthine oxidase reaction or human leukocytes); experiment: effect on superoxide generation in vitro; format: biochemical
Experimental: The rate of production of superoxide from the xanthine oxidase reaction or from human leukocytes activated with phorbol myristate acetate was measured spectrophotometrically as the superoxide dismutase (SOD)-inhibitable portion of the reduction of ferricytochrome c or nitroblue tetrazolium (NBT). All assays were carried out at 37° C., pH 7.1. For the superoxide production by the xanthine oxidase reaction, a concentration of 0.04 U/ml of xanthine oxidase was used with 0.1 mM xanthine as substrate. Absorbances were measured in the presence of 30 U/ml of SOD and in its absence. The indicators were either ferricytochrome c or NBT in a concentration of 20 uM. The initial rate of reduction of NBT was monitored at 530 nm and that of cytochrome c at 550 nm. Extinction coefficients were 21.4×10 ^3 /M cm for cytochrome c and 17.9×10^3 /M cm for NBT. The initial rate of production of superoxide from leukocytes was measured using a concentration of 20 uM ferricytochrome c or NBT as described above in the presence and absence of 30 U/ml of SOD.

[3] = tested on: DMPO-OH and DMPO-R radical adducts in coronary effluent of reperfused rabbit hearts; experiment: EPR spin trapping (DMPO) on coronary effluent of reperfused rabbit hearts; design: species or system New Zealand white rabbits
Experimental: as §1, with “recorder.” for “recorder. The ventricular volume was adjusted to achieve a left ventricular end disastolic pressure of 12 mmHg. During periods of global ischemia, the balloon was deflated and then reinflated 15 min after reflow.”
EPR spectra were recorded in flat cells at room temperature with either Varian E-9 or Bruker-IBM ER 300 spectrometers operating at X-band using 100 kHz modulation frequency and with TE 104 or TM 110 cavities. The microwave frequency and magnetic field were precisely measured using a Hewlett Packard 5342A Microwave Frequency counter and Bruker ER 035M NMR Gaussmeter. […] Quantitation of the free radical signals was performed by comparing the double integral of the observed signal to that of a known concentration of the tempo free radical in aqueous solution. […]

`NC(=NO)c1cc(O)c(O)c(O)c1` [3,4,5-trihydroxybenzamidoxime] was tested, and the “Left ventricular developed pressure” value [1] was 67±9 mm Hg, the “Cytochrome C Reduction” value ([2]; 10 uM compound) was 4.73 nmol and the “NBT Reduction” value ([2]; 10 uM compound) was 5.35 nmol. The “Cytochrome C Reduction” value ([2]; 20 uM compound) was 4.56 nmol, the “NBT Reduction” value ([2]; 20 uM compound) was 5.06 nmol and the “Cytochrome C Reduction” value ([2]; 50 uM compound) was 5.38 nmol. For the same compound, the “NBT Reduction” value ([2]; 50 uM compound) was 2.55 nmol, the “Cytochrome C Reduction” value ([2]; 100 uM compound) was 6.06 nmol and the “NBT Reduction” value ([2]; 100 uM compound) was 1.14 nmol. The “Cytochrome C Reduction” value ([2]; 200 uM compound) was 6.50 nmol, the “NBT Reduction” value ([2]; 200 uM compound) was 0.81 nmol and the “Cytochrome C Reduction” value ([2]; 300 uM compound) was 6.25 nmol. For the same compound, the “NBT Reduction” value ([2]; 300 uM compound) was 0.71 nmol, the “Cytochrome C Reduction” value ([2]; 500 uM compound) was 5.81 nmol and the “NBT Reduction” value ([2]; 500 uM compound) was 0.87 nmol. For the same compound, the “DMPO-OH and DMPO-R EPR signals upon reperfusion” value ([3]; 40 mM DMPO, post-ischemic reperfusion with drug) was “not observed” and the “new radical EPR signal on reperfusion with drug” value ([3]; with or without DMPO) was “appears as a single broad peak centered at 3480 G”.
